Results on 10 compounds are retold here after publication PMC8386742, “Discovery of N-aryl sulphonamide-quinazoline derivatives as anti-gastric cancer agents in vitro and in vivo via activating the Hippo signalling pathway” (Journal of Enzyme Inhibition and Medicinal Chemistry, 2021).

One data set has as its system MGC-803 cells. The data set can be described thus: MTT antiproliferative assay, MGC-803 cells. Format: cell-based, human. Particulars: Homo sapiens, MGC-803, 48 h, exposure for 48 h. As to the method: (§1) The in vitro antiproliferative activities of new target compounds 6a–6g, 9a–9i, 10a–10j, 11a–11j, and 14a–14d were evaluated against four human cancer cell lines (MGC-803, PC-3, HCT-116, and MCF-7) using MTT assay and 5-FU as a positive drug. The following Tables 1–[4] depicted the results of in vitro antiproliferative activity.
(§2) Cell lines used were cultured in humidified incubator in a humidified atmosphere of 5% CO2 and 95% air. The RPMI-1640 medium was supplemented with 10% foetal bovine serum, penicillin (100 U/ml) and streptomycin (0.1 mg/ml).
(§3) Cell lines were seeded into 96-well plates and incubated for 24 h. Then cells were treated with different concentrations of compounds. And after another 48 h, MTT reagent (20 μL per well) was added to each well and then incubated at 37 °C for 4 h. After the suspension was discarded, formazan was then dissolved with DMSO. Absorbencies of formazan solution were measured at 490 nm. The IC50 values of tested compounds were calculated by SPSS version 17.0.
Background: Tetrazolium dyes change colour on reduction, which living cells bring about.

A further data set concerns PC-3 cells. The data set can be described thus: MTT antiproliferative assay, PC-3 cells. Format: cell-based, human. Particulars: Homo sapiens, PC-3, exposure for 48 h. As to the method: as §1, §2, §3
The subject of another data set is HCT-116 cells. Kind of data set: MTT antiproliferative assay, HCT-116 cells. The following applies: Homo sapiens, HCT-116, 48 h, exposure for 48 h. It is filed as cell-based, human. As to the method: as §1, §2, §3
The test system of a further data set is MCF-7 cells. The data set can be described thus: MTT antiproliferative assay, MCF-7 cells. It is filed as cell-based, human. The following applies: Homo sapiens, MCF7, 48 h, exposure for 48 h. The procedure:
as §1, §2, §3

What is called IC50 is the concentration at which inhibition is half-maximal. Broadly, the melting point is the temperature of the solid-liquid transition.

Regarding `COc1ccc(CN(c2cc(OC)c(OC)c(OC)c2)S(=O)(=O)c2ccc(F)cc2)cc1` [Compound 6a, 4-Fluoro-N-(4-methoxybenzyl)-N-(3,4,5-trimethoxyphenyl) benzene-sulphonamide], the melting point is 156 to 157 °C. The compound further returned an IC50 in the data set with MGC-803 cells of 6.62 ± 0.82 µM. The compound further yielded an IC50 with PC-3 cells of 18.8 ± 0.31 µM. In the data set with HCT-116 cells, the IC50 was 16.7 ± 1.03 µM. The same compound came in with a half-inhibitory concentration (IC50) in the data set on MCF-7 cells of more than 40 µM.
`COc1ccc(CN(c2cc(OC)c(OC)c(OC)c2)S(=O)(=O)c2ccc(Cl)cc2)cc1` [Compound 6b, 4-Chloro-N-(4-methoxybenzyl)-N-(3,4,5-trimethoxyphenyl) benzene-sulphonamide] showed a melting point of 166 to 167 °C. The same compound returned an IC50 with MGC-803 cells of more than 40 µM. The concentration for half-maximal inhibition (IC50) with PC-3 cells was more than 40 µM. The IC50 with HCT-116 cells was more than 40 µM. Besides, in the data set with MCF-7 cells, the IC50 was more than 40 µM.
Turning to `COc1ccc(CN(c2cc(OC)c(OC)c(OC)c2)S(=O)(=O)c2ccc(C)cc2)cc1` [Compound 6c], the IC50 in the data set with MGC-803 cells is 4.32 ± 0.65 µM; in the data set on PC-3 cells, 8.81 ± 0.98 µM; with HCT-116 cells, 6.18 ± 0.61 µM; with MCF-7 cells it was 11.2 ± 1.02 µM.
`COc1ccc(CN(c2cc(OC)c(OC)c(OC)c2)S(=O)(=O)c2ccccc2)cc1` [Compound 6d]: the IC50 in the data set with MGC-803 cells, in the data set on PC-3 cells, in the data set on HCT-116 cells and in the data set with MCF-7 cells was more than 40 µM each time.
`COc1ccc(CN(c2cc(OC)c(OC)c(OC)c2)S(=O)(=O)c2ccc(OC)cc2)cc1` [Compound 6e, 4-Methoxy-N-(4-methoxybenzyl)-N-(3,4,5-trimethoxyphenyl) benzene-sulphonamide]: the melting point lay in the range of 179 to 180 °C. In the data set with MGC-803 cells, this compound displayed an IC50 of 2.86 ± 1.08 µM. In the data set with PC-3 cells, this compound returned an IC50 of 4.01 ± 1.67 µM. Besides, half-maximal inhibition in the data set on HCT-116 cells (IC50) required 3.48 ± 1.22 µM. This compound registered an IC50 with MCF-7 cells of 7.68 ± 1.82 µM.
For the compound `COc1ccc(CN(c2cc(OC)c(OC)c(OC)c2)S(=O)(=O)c2cccs2)cc1` [Compound 6f, N-(4-methoxybenzyl)-N-(3,4,5-trimethoxyphenyl) thiophene-2-sulphonamide], the IC50 was determined as 28.3 ± 2.86 µM with MGC-803 cells, 38.7 ± 2.87 µM in the data set with PC-3 cells, 38.1 ± 2.64 µM in the data set with HCT-116 cells and 26.1 ± 1.87 µM with MCF-7 cells.
For `COc1ccc(CN(c2cc(OC)c(OC)c(OC)c2)S(=O)(=O)c2cccnc2)cc1` [Compound 6g, N-(4-methoxybenzyl)-N-(3,4,5-trimethoxyphenyl) pyridine-3-sulphonamide], the melting point fell in the range of 162 to 163 °C. Further, the IC50 in the data set on MGC-803 cells was determined as 38.2 ± 1.55 µM. Half-maximal inhibition with PC-3 cells (IC50) required 16.9 ± 1.58 µM. In the data set with HCT-116 cells, the IC50 was more than 40 µM. The compound further gave an IC50 in the data set on MCF-7 cells of more than 40 µM.
`COc1ccc(S(=O)(=O)N(Cc2c(C)noc2C)c2cc(OC)c(OC)c(OC)c2)cc1` [Compound 9h, N-((3,5-dimethylisoxazol-4-yl)methyl)-4-methoxy-N-(3,4,5-trimethoxyphenyl) benzene-sulfonamide]: the IC50 is 5.48 ± 0.58 µM with MGC-803 cells, 8.28 ± 3.4 µM with PC-3 cells, 12.1 ± 0.85 µM in the data set on HCT-116 cells and 11.5 ± 1.03 µM in the data set with MCF-7 cells.
Compound `COc1cc(N(Cc2nc(C)c3ccccc3n2)C(=O)c2ccc(C)cc2)cc(OC)c1OC` [Compound 11e, 4-Methyl-N-((4-methylquinazolin-2-yl)methyl)-N-(3,4,5-trimethoxyphenyl) benzamide] displayed a melting point of 196 to 197 °C. In the data set on MGC-803 cells, this compound registered an IC50 of 10.8 ± 1.18 µM. For the same compound, the midpoint of inhibition in the data set with PC-3 cells, the IC50, lay at 24.9 ± 1.41 µM. Also, the IC50 with MCF-7 cells was 18.6 ± 1.32 µM.
For the compound `COc1ccc(C(=O)N(Cc2nc(C)c3ccccc3n2)c2cc(OC)c(OC)c(OC)c2)cc1` [Compound 11h, 4-Methoxy-N-((4-methylquinazolin-2-yl)methyl)-N-(3,4,5-trimethoxyphenyl) benzamide], the IC50 in the data set with MGC-803 cells is 5.82 ± 1.17 µM; in the data set with PC-3 cells, 18.7 ± 1.38 µM; in the data set with HCT-116 cells it was 10.4 ± 1.04 µM; with MCF-7 cells it was 22.4 ± 1.54 µM.
